Laboratory results reported in the CheMixHub viscosity set.

Assay: xn = mol fraction of the nth substance listed
Conditions: 101.3 kPa

NCCCN + CC(O)CO
viscosity [mPa·s]
Conditions	293.15 K	298.15 K	303.15 K	308.15 K	313.15 K	318.15 K
x2 = 0.0488	2.44	2.19	1.92	1.68	1.48	1.32
x2 = 0.0977	3.15	2.8	2.43	2.08	1.82	1.58
x2 = 0.1467	3.95	3.45	2.97	2.51	2.17	1.91
x2 = 0.1958	5.23	4.5	3.79	3.17	2.7	2.34
x2 = 0.2451	6.85	5.81	4.87	4	3.36	2.88
x2 = 0.2945	9.15	7.62	6.28	5.09	4.2	–
x2 = 0.3441	12.3	10	8.12	6.48	5.29	–
x2 = 0.3937	17	13.6	10.8	8.39	6.74	–
x2 = 0.4435	22.8	17.9	14	10.7	8.55	–
x2 = 0.4934	30	23.2	17.9	13.6	10.6	–
x2 = 0.5435	38.5	29.3	22.2	16.7	12.9	–
x2 = 0.5937	47.4	35.8	27	20.1	15.4	–
x2 = 0.644	55.5	41.8	31.4	23.2	17.6	–
x2 = 0.6945	62.5	46.9	35.1	25.9	19.7	–
x2 = 0.745	67.1	50.3	37.8	27.8	21.2	–
x2 = 0.7958	69	51.8	38.8	28.8	21.9	–
x2 = 0.8466	68.9	51.9	39	28.9	22	–
x2 = 0.8976	66.1	50	37.7	28.1	21.5	–
x2 = 0.9487	62.3	47.1	35.7	26.8	20.5	–
